Measured values published in patent US4661471A, “Method of inhibiting and inducing human platelet aggregation” (New England Deaconess Hospital, priority 1984, dated 1987).
Ends that are not written are not given here.

What was measured:
[1] = test system: fibrinogen binding to Human platelets; experiment: Inhibition of 125I-fibrinogen binding to ADP-treated human platelets; conditions: 10^8 platelets/0.5 ml treated with 5-10 micromoles of ADP; 125I-labelled fibrinogen; read-out: IC50 or 50% inhibition of fibrinogen binding
Experimental: The following experiment illustrates that the peptides of the invention can inhibit fibrinogen binding to platelets. Human platelets at a concentration of 10^8 cells/0.5 ml were treated with 5-10 micromoles of ADP. Various concentrations of the inhibitory peptides were mixed with the platelets and then […] ^125 I-labelled fibrinogen was added to the solution. The IC50 or 50% inhibition of fibrinogen binding was determined for each peptide by allowing the reaction to proceed to a conclusion, separating the platelets from unbound ^125 I-fibrinogen and determining the amount of labelled fibrinogen bound to the platelets. The less labelled fibrinogen bound to the platelets, the better the inhibition.

[2] = test system: human platelets; experiment: Aggregation of ADP-treated platelets separated from plasma proteins by the synthetic peptide-albumin conjugate, in the absence of fibrinogen; assay type: cell-based; conditions: peptide added to the platelets prior to the conjugate
Experimental: Ten micromoles of ADP was added to 10^8 platelets which had been separated from the plasma proteins.

[3] = test system: human platelets; experiment: Inhibition of ADP-induced fibrinogen (gamma chain multimer) cross-linked aggregation of platelets, light transmission; assay type: cell-based; set-up: dose or concentration left out as unconfirmed; conditions: 10^8 platelets treated with 5-10 micromoles of ADP; 7 micromoles of gamma chain fibrinogen multimers
Experimental: The sole figure of the drawing illustrates the inhibition of ADP-induced fibrinogen dependent platelet aggregation caused by incubation with various peptides of the invention.
A 60 µM concentration of a variety of synthetic peptides of the invention was added to 10^8 platelets which had been treated with 5-10 micromoles of ADP. At time zero, 7 micromoles of gamma chain fibrinogen multimers was added and the transmission of the solution was monitored for platelet aggregate formation. FIG. 1 illustrates the results of this experiment. […] While gamma chain multimers were used, similar results have been obtained with bivalent fibrinogen molecules.

Cys-Tyr-Gly-Gln-Gln-His-His-Leu-Gly-Gly-Ala-Lys-Gln-Ala-Gly-Asp-Val-COOH (CYGQQHHLGGAKQAGDV-OH) [heptadecapeptide]
IC50 [1]: 28 µM

HHLGGAKQAGDV [dodecapeptide]
inhibition of aggregation induced by the synthetic peptide-albumin conjugate [2]: the aggregation reaction is inhibited | inhibition of the aggregation reaction (transmission) [3]: almost complete inhibition | IC50 [1]: 28 µM
